Reference: patent US20170121683A1, “ARYL HYDROCARBON RECEPTOR DISRUPTION AND ENHANCEMENT” (priority 2015, published 2017)

System: AHR-target genes (CYP1A1 and CYP1B1) in H9 hESCs
Assay: qPCR of AHR downstream gene targets in undifferentiated hESCs
Assay type: cell-based, human
Conditions: 1 μM SR-1 or 10 nM TCDD for 96 hours, compared to DMSO controls
Method: Undifferentiated H9 hESCs were treated with either DMSO (vehicle), 1 μM SR-1, or 10 nM TCDD for 96 hours in hESC growth media. Quantitative polymerase chain reaction analysis for AHR and two downstream effector gene targets (CYP1A1 and CYP1B1) are shown.
FIG. 8A. Non-adherent hematopoietic progenitor cells derived from hESCs were harvested at Day 6+3, Day 6+5, Day 6+7, and Day 6+9 time points and probed for gene expression by quantitative real-time PCR (qPCR). For each gene, Ct values were normalized to GAPDH at each time point and data is presented as relative fold-change as compared to undifferentiated hESCs. […] FIG. 8B Undifferentiated hESCs were cultured in the presence of 1 μM SR-1, 10 nM TCDD, or DMSO vehicle control for 96 hours and probed for gene expression by qPCR. For each gene, Ct values were normalized to GAPDH at each time point and data is presented as relative fold-change as compared to DMSO treated hESCs. n=3, error bars represent SEM, *p<0.05 assessed by two-way ANOVA+Tukey-Kramer multiple comparisons post-hoc test. FIG. 8C. Both adherent and non-adherent cell fractions treated with either DMSO, SR-1, or TCDD were harvested at Day 6+3, Day 6+6, and Day 6+9 and probed for viability with Sytox Blue Live/Dead Stain. Total percentage of viable cells for each group and time point are plotted. n=3.
H9 human embryonic stem cells (H9 hESCs; University of Wisconsin, Madison, Wis.) were adapted to passage as single cells using TrypLE (Invitrogen, Carlsbad, Calif.) as previously described (Ng et al. Nat. Protoc. 3, 768-76 (2008)). H9 hESCs were maintained on irradiated mouse embryonic fibroblasts in ES cell growth medium including Dulbecco's modified Eagle's medium (DMEM)/Ham's F-12 medium (F12) (Invitrogen) supplemented with 15% Knockout Serum Replacer (Invitrogen), 1 mM L-glutamine (Invitrogen), 0.1 mM β-mercaptoethanol (Sigma Aldrich, St. Louis, Mo.), 1% minimum essential medium nonessential amino acids (Invitrogen), 4 ng/mL basic fibroblast growth factor (R&D Systems Inc., Minneapolis, Minn.), and 1% penicillin-streptomycin (Invitrogen) incubated at 37° C. in a humidified atmosphere containing 5% CO2. Single-cell adapted hESCs were subjected to hemato-endothelial differentiation as spin embryoid bodies (“spin-EBs”), also previously described (Ng et al. Nat. Protoc. 3, 768-76 (2008); Knorr et al. Stem Cells Dev. 22, 1861-9 (2013); Ferrell et al., Stem Cells 33(4), 1130-41 (2015)). […]

Row | SMILES | expression of CYP1A1 | expression of CYP1B1
1 | CC(C)n1cnc2c(NCCc3ccc(O)cc3)nc(-c3csc4ccccc34)nc21 [SR-1, StemReginin-1] | reduced expression | reduced expression
2 | Clc1cc2c(cc1Cl)Oc1cc(Cl)c(Cl)cc1O2 [TCDD, 2,3,7,8-tetrachlorodibenzo-p-dioxin] | significantly increased expression | significantly increased expression
